Measured values as given in patent publication EP1171107B1, “USE OF A PHARMACEUTICAL COMPOSITION IN THE MANUFACTURE OF A MEDICAMENT FOR THE TREATMENT OF PATHOLOGICAL CONDITIONS OF THE EYE CAUSED BY BACTERIA, VIRUSES, FUNGI, YEASTS AND PROTOZOA” (Dr. GERHARD MANN chem.-pharm. Fabrik GmbH, priority 1999, dated 2000).
Structures can show the parent of a compound that is named as a salt.

Experiments:
Format in all cases: cell-based
P.aeruginosa [1] = experiment: Quantitative germ count (re-isolation, surface method) after inoculating the test preparation; settings: Ausgangskeimzahl 2,7 x 10^5 KBE/ml
Method in brief: (§1)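 Test preparations (5 ml) inoculated with ca. 10^5 CFU/ml of each strain, one tube per time point. After 2, 6, 8, 24, 32, 48 and 72 h, cells pelleted, washed and resuspended in NaCl-peptone buffer, then spiral-plated on Caso agar and incubated at 33±2 °C up to 4 days. Detection limit 100 CFU/ml.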

H.influenzae [2] = experiment: Qualitative examination: enrichment of the inoculated test preparation in broth
Method in brief: (§2)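 5 ml substance + ca. 10^5 CFU/ml; contact 2, 6, 8, 24, 32, 48, 72 h; spin 10 min 3000 rpm, resuspend in NaCl-peptone buffer ×2; 2 ml → 20 ml Caso broth (H. influenzae: Fildes), 33±2°C, ≤4 d; no growth = inoculum eliminated.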

P.aeruginosa [3] = experiment: as above
Method in brief: as §2

Sc. pneumoniae [4] = experiment: as above
Method in brief: as §2

E.coli [5] = experiment: as above
Method in brief: as §2

S.epidermidis = experiment: as above
Method in brief: as §2

S.aureus [6] = experiment: as above
Method in brief: as §2

Sc. pneumoniae [7] = experiment: Quantitative germ count (re-isolation, surface method) after inoculating the test preparation; settings: Ausgangskeimzahl 3,7 x 10^5 KBE/ml
Method in brief: as §1

E.coli [8] = experiment: as above; settings: Ausgangskeimzahl 2,7 x 10^5 KBE/ml
H.influenzae [9] = experiment: as above; settings: Ausgangskeimzahl 2,8 x 10^5 KBE/ml
Method in brief: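 Surviving germs were counted by the surface method: an aliquot was spiral-plated on Kochblut-Agar and incubated at 33±2°C for max. 4 Tage, giving re-isolated counts in KBE/ml with a detection limit of 100 KBE/ml. Initial germ counts were also set by spiral-plater surface plating. The H. influenzae strain was pretested biochemically for identity and purity.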

S.aureus [10] = experiment: as above; settings: Ausgangskeimzahl 2,6 x 10^5 KBE/ml
Method in brief: as §1

O=C(O)c1cn(C2CC2)c2cc(N3CCNCC3)c(F)cc2c1=O [Ciprofloxacin HCl 0,35 Gew.-%, Ciprofloxacin HCl, reference compound]
+: Ergebnis der Reisolierung qualitiativ (+/-) nach Anreicherung (S.epidermidis; 2 h after inoculation) | Ergebnis der Reisolierung qualitiativ (+/-) nach Anreicherung (S.epidermidis; 4 h after inoculation) | Ergebnis der Reisolierung qualitiativ (+/-) nach Anreicherung (S.epidermidis; 6 h after inoculation) | Ergebnis der Reisolierung qualitiativ (+/-) nach Anreicherung (S.aureus [6]; 2 h after inoculation) | Ergebnis der Reisolierung qualitiativ (+/-) nach Anreicherung (S.aureus [6]; 4 h after inoculation) | Ergebnis der Reisolierung qualitiativ (+/-) nach Anreicherung (S.aureus [6]; 6 h after inoculation) | Ergebnis der Reisolierung qualitiativ (+/-) nach Anreicherung (S.aureus [6]; 8 h after inoculation)
- -: Ergebnis der Reisolierung qualitiativ (+/-) nach Anreicherung (P.aeruginosa [3]; 8 h after inoculation)
<100 KBE/ml: Ergebnis der Reisolierung (in KBE/ml) (P.aeruginosa [1]; 2 h after inoculation) | Ergebnis der Reisolierung (in KBE/ml) (P.aeruginosa [1]; 4 h after inoculation) | Ergebnis der Reisolierung (in KBE/ml) (P.aeruginosa [1]; 6 h after inoculation) | Ergebnis der Reisolierung (in KBE/ml) (P.aeruginosa [1]; 8 h after inoculation) | Ergebnis der Reisolierung (in KBE/ml) (P.aeruginosa [1]; 24 h after inoculation) | Ergebnis der Reisolierung (in KBE/ml) (P.aeruginosa [1]; 32 h after inoculation) | Ergebnis der Reisolierung (in KBE/ml) (P.aeruginosa [1]; 48 h after inoculation) | Ergebnis der Reisolierung (in KBE/ml) (P.aeruginosa [1]; 72 h after inoculation) | Ergebnis der Reisolierung (in KBE/ml) (Sc. pneumoniae [7]; 2 h after inoculation) | Ergebnis der Reisolierung (in KBE/ml) (Sc. pneumoniae [7]; 4 h after inoculation) | Ergebnis der Reisolierung (in KBE/ml) (Sc. pneumoniae [7]; 6 h after inoculation) | Ergebnis der Reisolierung (in KBE/ml) (Sc. pneumoniae [7]; 8 h after inoculation) | Ergebnis der Reisolierung (in KBE/ml) (Sc. pneumoniae [7]; 24 h after inoculation) | Ergebnis der Reisolierung (in KBE/ml) (Sc. pneumoniae [7]; 32 h after inoculation) | Ergebnis der Reisolierung (in KBE/ml) (Sc. pneumoniae [7]; 48 h after inoculation) | Ergebnis der Reisolierung (in KBE/ml) (Sc. pneumoniae [7]; 72 h after inoculation) | Ergebnis der Reisolierung (in KBE/ml) (E.coli [8]; 2 h after inoculation) | Ergebnis der Reisolierung (in KBE/ml) (E.coli [8]; 4 h after inoculation) | Ergebnis der Reisolierung (in KBE/ml) (E.coli [8]; 6 h after inoculation) | Ergebnis der Reisolierung (in KBE/ml) (E.coli [8]; 8 h after inoculation) | Ergebnis der Reisolierung (in KBE/ml) (E.coli [8]; 24 h after inoculation) | Ergebnis der Reisolierung (in KBE/ml) (E.coli [8]; 32 h after inoculation) | Ergebnis der Reisolierung (in KBE/ml) (E.coli [8]; 48 h after inoculation) | Ergebnis der Reisolierung (in KBE/ml) (E.coli [8]; 72 h after inoculation) | Ergebnis der Reisolierung (in KBE/ml) (H.influenzae [9]; 2 h after inoculation) | Ergebnis der Reisolierung (in KBE/ml) (H.influenzae [9]; 4 h after inoculation) | Ergebnis der Reisolierung (in KBE/ml) (H.influenzae [9]; 6 h after inoculation) | Ergebnis der Reisolierung (in KBE/ml) (H.influenzae [9]; 8 h after inoculation) | Ergebnis der Reisolierung (in KBE/ml) (H.influenzae [9]; 24 h after inoculation) | Ergebnis der Reisolierung (in KBE/ml) (H.influenzae [9]; 32 h after inoculation) | Ergebnis der Reisolierung (in KBE/ml) (H.influenzae [9]; 48 h after inoculation) | Ergebnis der Reisolierung (in KBE/ml) (H.influenzae [9]; 72 h after inoculation) | Ergebnis der Reisolierung (in KBE/ml) (S.aureus [10]; 2 h after inoculation) | Ergebnis der Reisolierung (in KBE/ml) (S.aureus [10]; 4 h after inoculation) | Ergebnis der Reisolierung (in KBE/ml) (S.aureus [10]; 6 h after inoculation) | Ergebnis der Reisolierung (in KBE/ml) (S.aureus [10]; 24 h after inoculation) | Ergebnis der Reisolierung (in KBE/ml) (S.aureus [10]; 32 h after inoculation) | Ergebnis der Reisolierung (in KBE/ml) (S.aureus [10]; 48 h after inoculation) | Ergebnis der Reisolierung (in KBE/ml) (S.aureus [10]; 72 h after inoculation)
-: Ergebnis der Reisolierung qualitiativ (+/-) nach Anreicherung (H.influenzae [2]; 2 h after inoculation) | Ergebnis der Reisolierung qualitiativ (+/-) nach Anreicherung (H.influenzae [2]; 4 h after inoculation) | Ergebnis der Reisolierung qualitiativ (+/-) nach Anreicherung (H.influenzae [2]; 6 h after inoculation) | Ergebnis der Reisolierung qualitiativ (+/-) nach Anreicherung (H.influenzae [2]; 8 h after inoculation) | Ergebnis der Reisolierung qualitiativ (+/-) nach Anreicherung (H.influenzae [2]; 24 h after inoculation) | Ergebnis der Reisolierung qualitiativ (+/-) nach Anreicherung (H.influenzae [2]; 32 h after inoculation) | Ergebnis der Reisolierung qualitiativ (+/-) nach Anreicherung (H.influenzae [2]; 48 h after inoculation) | Ergebnis der Reisolierung qualitiativ (+/-) nach Anreicherung (H.influenzae [2]; 72 h after inoculation) | Ergebnis der Reisolierung qualitiativ (+/-) nach Anreicherung (P.aeruginosa [3]; 2 h after inoculation) | Ergebnis der Reisolierung qualitiativ (+/-) nach Anreicherung (P.aeruginosa [3]; 4 h after inoculation) | Ergebnis der Reisolierung qualitiativ (+/-) nach Anreicherung (P.aeruginosa [3]; 6 h after inoculation) | Ergebnis der Reisolierung qualitiativ (+/-) nach Anreicherung (P.aeruginosa [3]; 24 h after inoculation) | Ergebnis der Reisolierung qualitiativ (+/-) nach Anreicherung (P.aeruginosa [3]; 32 h after inoculation) | Ergebnis der Reisolierung qualitiativ (+/-) nach Anreicherung (P.aeruginosa [3]; 48 h after inoculation) | Ergebnis der Reisolierung qualitiativ (+/-) nach Anreicherung (P.aeruginosa [3]; 72 h after inoculation) | Ergebnis der Reisolierung qualitiativ (+/-) nach Anreicherung (Sc. pneumoniae [4]; 2 h after inoculation) | Ergebnis der Reisolierung qualitiativ (+/-) nach Anreicherung (Sc. pneumoniae [4]; 4 h after inoculation) | Ergebnis der Reisolierung qualitiativ (+/-) nach Anreicherung (Sc. pneumoniae [4]; 6 h after inoculation) | Ergebnis der Reisolierung qualitiativ (+/-) nach Anreicherung (Sc. pneumoniae [4]; 8 h after inoculation) | Ergebnis der Reisolierung qualitiativ (+/-) nach Anreicherung (Sc. pneumoniae [4]; 24 h after inoculation) | Ergebnis der Reisolierung qualitiativ (+/-) nach Anreicherung (Sc. pneumoniae [4]; 32 h after inoculation) | Ergebnis der Reisolierung qualitiativ (+/-) nach Anreicherung (Sc. pneumoniae [4]; 48 h after inoculation) | Ergebnis der Reisolierung qualitiativ (+/-) nach Anreicherung (Sc. pneumoniae [4]; 72 h after inoculation) | Ergebnis der Reisolierung qualitiativ (+/-) nach Anreicherung (E.coli [5]; 2 h after inoculation) | Ergebnis der Reisolierung qualitiativ (+/-) nach Anreicherung (E.coli [5]; 4 h after inoculation) | Ergebnis der Reisolierung qualitiativ (+/-) nach Anreicherung (E.coli [5]; 6 h after inoculation) | Ergebnis der Reisolierung qualitiativ (+/-) nach Anreicherung (E.coli [5]; 8 h after inoculation) | Ergebnis der Reisolierung qualitiativ (+/-) nach Anreicherung (E.coli [5]; 24 h after inoculation) | Ergebnis der Reisolierung qualitiativ (+/-) nach Anreicherung (E.coli [5]; 32 h after inoculation) | Ergebnis der Reisolierung qualitiativ (+/-) nach Anreicherung (E.coli [5]; 48 h after inoculation) | Ergebnis der Reisolierung qualitiativ (+/-) nach Anreicherung (E.coli [5]; 72 h after inoculation) | Ergebnis der Reisolierung qualitiativ (+/-) nach Anreicherung (S.epidermidis; 8 h after inoculation) | Ergebnis der Reisolierung qualitiativ (+/-) nach Anreicherung (S.epidermidis; 24 h after inoculation) | Ergebnis der Reisolierung qualitiativ (+/-) nach Anreicherung (S.epidermidis; 32 h after inoculation) | Ergebnis der Reisolierung qualitiativ (+/-) nach Anreicherung (S.epidermidis; 48 h after inoculation) | Ergebnis der Reisolierung qualitiativ (+/-) nach Anreicherung (S.epidermidis; 72 h after inoculation) | Ergebnis der Reisolierung qualitiativ (+/-) nach Anreicherung (S.aureus [6]; 24 h after inoculation) | Ergebnis der Reisolierung qualitiativ (+/-) nach Anreicherung (S.aureus [6]; 32 h after inoculation) | Ergebnis der Reisolierung qualitiativ (+/-) nach Anreicherung (S.aureus [6]; 48 h after inoculation) | Ergebnis der Reisolierung qualitiativ (+/-) nach Anreicherung (S.aureus [6]; 72 h after inoculation)
